Values after ≈ are worked out from the molar mass of the structure shown. Read-outs that look alike come from different tables or passages of the source.
Assays:
[1] = molecular target: E. coli PBP3 (Escherichia coli (strain K12), UniProt P0AD68); test: E. coli PBP3 Bocillin-FL fluorescence polarization competition binding assay
Method in brief: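 This was a fluorescence polarization competition with fluorescent penicillin Bocillin-FL (0.1 μM final), read at 490/520 nm for 60 min immediately after its addition. The buffer was Hepes pH 8.0 with 300 mM NaCl and 5% glycerol, containing 1.5 μM PBP and test inhibitor up to 1000 μM. Potency is expressed as EC50 for reducing probe binding.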

[2] = system: E. coli AG100; test: Broth microdilution MIC, E. coli AG100 (wild-type parent); assay type: cell-based; conditions: Escherichia coli; wild-type parent E. coli AG100, broth microdilution; read-out: MIC E. coli AG100
Method in brief: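 Broth microdilution in cation-supplemented Mueller-Hinton broth, 2-fold serial compound dilutions, inoculum 5×10^5 CFU/mL from 3-5 h log culture.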

[3] = system: K. pneumoniae 848844; test: microbe, parasite or virus in culture; assay type: cell-based, Klebsiella pneumoniae
Method in brief: (§1)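 CLSI broth microdilution in cation-supplemented Mueller-Hinton broth; 2-fold compound dilutions inoculated at 5×10^5 CFU/mL from a 3-5 h log-phase culture. Plates incubated 16-20 hours at 37° C; MIC read visually as lowest concentration with no growth.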

[4] = system: P. aeruginosa (ΔmexAB-oprM); test: microbe, parasite or virus in culture; assay type: cell-based; conditions: Pseudomonas aeruginosa, read-out: MIC P. aeruginosa ΔmexAB-OprM
Method in brief: as §1

[5] = system: N. gonorrhoeae FA1090; test: Liquid broth MIC, N. gonorrhoeae FA1090; assay type: cell-based; conditions: Neisseria gonorrhoeae; N. gonorrhoeae FA1090, liquid broth; read-out: Minimum Inhibitory Concentration, N. gonorrhoeae FA1090
Method in brief: (§2)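 MIC taken by eye as the lowest well lacking growth after 40-42 h at 36° C under 5% CO2. Compounds were 2-fold serially diluted; the starting inoculum of 5×10^5 CFU/mL came from direct colony suspensions grown on Kellogg's-supplemented GC agar.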

[6] = system: N. gonorrhoeae FA19; test: Liquid broth MIC, N. gonorrhoeae FA19; assay type: cell-based; conditions: Neisseria gonorrhoeae; N. gonorrhoeae FA19, liquid broth; read-out: Minimum Inhibitory Concentration, N. gonorrhoeae FA19
Method in brief: as §2

[7] = fluorescence polarization competition binding with Bocillin-FL, read-out: E. coli K12 PBP3 Potency
[8] = Klebsiella pneumoniae, K. pneumoniae 848844 producing SHV-11 and KPC-2, read-out: MIC K. pneumoniae 848844

Sequence of E. coli PBP3 (P0AD68 whole entry): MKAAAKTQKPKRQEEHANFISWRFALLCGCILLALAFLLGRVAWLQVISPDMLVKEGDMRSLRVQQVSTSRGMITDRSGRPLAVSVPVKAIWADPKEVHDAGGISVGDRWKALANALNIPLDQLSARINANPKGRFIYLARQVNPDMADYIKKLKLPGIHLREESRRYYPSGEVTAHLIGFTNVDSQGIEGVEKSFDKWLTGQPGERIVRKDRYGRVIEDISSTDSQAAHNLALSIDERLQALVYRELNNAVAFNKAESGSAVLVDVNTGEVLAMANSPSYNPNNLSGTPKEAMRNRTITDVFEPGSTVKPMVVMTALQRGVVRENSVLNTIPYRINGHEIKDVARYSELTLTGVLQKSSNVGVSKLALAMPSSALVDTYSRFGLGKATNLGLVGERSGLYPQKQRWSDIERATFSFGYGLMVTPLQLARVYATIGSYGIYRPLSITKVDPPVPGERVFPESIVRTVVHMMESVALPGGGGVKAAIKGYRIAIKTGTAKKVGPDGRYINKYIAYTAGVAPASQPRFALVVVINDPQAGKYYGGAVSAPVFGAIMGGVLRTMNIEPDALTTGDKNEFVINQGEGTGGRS

Compound	EC50 [1, 7]	MIC [2]	MIC [3, 8]	MIC [4]	MIC [5]	MIC [6]	EC50 [1]	MIC ([3]; Klebsiella pneumoniae, 848844, read-out: MIC K. pneumoniae 848844)
CCNC(=O)NCCN1CCN(C(=O)NC(C(=O)N[C@H]2Cc3cccc(C(=O)O)c3OB2O)c2ccc(O)c(O)c2Cl)C(=O)C1=O (stereo partly drawn) [Example 235, (3R)-3-(2-(2-chloro-3,4-dihydroxyphenyl)-2-(4-(2-(3-ethylureido)ethyl)-2,3-dioxopiperazine-1-carboxamido)acetamido)-2-hydroxy-3,4-dihydro-2H-benzo[e][1,2]oxaborinine-8-carboxylic acid]	< 30 µM	8 to 16 µg/mL	2 to 4 µg/mL	< 0.25 µg/mL	1 to 2 µg/mL (≈ 1.51 to 3.03 µM)	> 64 µg/mL	–	–
NCCCN1CCN(C(=O)N[C@@H](C(=O)N[C@H]2Cc3ccc(F)c(C(=O)O)c3OB2O)c2ccc(O)c(O)c2Cl)C(=O)C1=O [Example 236, (R)-3-((R)-2-(4-(3-aminopropyl)-2,3-dioxopiperazine-1-carboxamido)-2-(2-chloro-3,4-dihydroxyphenyl)acetamido)-7-fluoro-2-hydroxy-3,4-dihydro-2H-benzo[e][1,2]oxaborinine-8-carboxylic acid]	–	0.5 to 1 µg/mL	0.5 to 1 µg/mL	< 0.25 µg/mL	1 to 2 µg/mL (≈ 1.61 to 3.22 µM)	4 to 8 µg/mL (≈ 6.43 to 12.9 µM)	30 to 500 µM	–
CCN1C[C@H](CO)N(C(=O)NC(C(=O)N[C@H]2Cc3ccc(F)c(C(=O)O)c3OB2O)c2ccc(O)c(O)c2Cl)C(=O)C1=O (stereo partly drawn) [Example 237, (3R)-3-(2-(2-chloro-3,4-dihydroxyphenyl)-2-((R)-4-ethyl-6-(hydroxymethyl)-2,3-dioxopiperazine-1-carboxamido)acetamido)-7-fluoro-2-hydroxy-3,4-dihydro-2H-benzo[e][1,2]oxaborinine-8-carboxylic acid]	< 30 µM	0.5 to 1 µg/mL	2 to 4 µg/mL	< 0.25 µg/mL	1 to 2 µg/mL (≈ 1.61 to 3.21 µM)	4 to 8 µg/mL (≈ 6.42 to 12.8 µM)	–	–
CCN1C[C@H](CCN)N(C(=O)NC(C(=O)N[C@H]2Cc3ccc(F)c(C(=O)O)c3OB2O)c2ccc(O)c(O)c2Cl)C(=O)C1=O (stereo partly drawn) [Example 238, (3R)-3-(2-((S)-6-(2-aminoethyl)-4-ethyl-2,3-dioxopiperazine-1-carboxamido)-2-(2-chloro-3,4-dihydroxyphenyl)acetamido)-7-fluoro-2-hydroxy-3,4-dihydro-2H-benzo[e][1,2]oxaborinine-8-carboxylic acid]	–	2 to 4 µg/mL	–	< 0.25 µg/mL	4 to 8 µg/mL (≈ 6.29 to 12.6 µM)	> 64 µg/mL	30 to 500 µM	8 to 16 µg/mL
CNCCN1CCN(C(=O)NC(C(=O)N[C@H]2Cc3cccc(C(=O)O)c3OB2O)c2ccc(O)c(O)c2Cl)C(=O)C1=O (stereo partly drawn) [Example 239, (3R)-3-(2-(2-chloro-3,4-dihydroxyphenyl)-2-(4-(2-(methylamino)ethyl)-2,3-dioxopiperazine-1-carboxamido)acetamido)-2-hydroxy-3,4-dihydro-2H-benzo[e][1,2]oxaborinine-8-carboxylic acid]	–	2 to 4 µg/mL	2 to 4 µg/mL	< 0.25 µg/mL	4 to 8 µg/mL (≈ 6.62 to 13.2 µM)	> 64 µg/mL	30 to 500 µM	–

From patent US12173018B2, “Penicillin-binding protein inhibitors” (priority 2018, dated 2024)
